Results: patent US11396506B2, “Amino acid compounds with unbranched linkers and methods of use” (Pliant Therapeutics, Inc., priority 2018, dated 2022)

Molecular target: recombinant human integrin αVβ6 (Homo sapiens (Human), UniProt P06756+P18564)
Test: Solid phase integrin αVβ6 binding assay
Conditions: recombinant TGFβ1 LAP as ligand, values given as ranges, read-out: αVβ6 Inhibition IC50 (nM) - range
Experimental: Example B1—Solid Phase Integrin αVβ6 Binding Assay
Microplates were coated with recombinant human integrin αVβ6 (2 μg/mL) in PBS (100 μL/well 25 OC, overnight). The coating solution was removed, washed with wash buffer (0.05% Tween 20; 0.5 mM MnCl2; in 1×TBS). Plate was blocked with 200 μL/well of Block Buffer (1% BSA; 5% sucrose; 0.5 mM MnCl2; in 1×TBS) at 37° C. for 2 h. Dilutions of testing compounds and recombinant TGFβ1 LAP (0.67 μg/mL) in binding buffer (0.05% BSA; 2.5% sucrose; 0.5 mM MnCl2; in 1×TBS) were added. The plate was incubated for 2 hours at 25° C., washed, and incubated for 1 hour with Biotin-Anti-hLAP. Bound antibody was detected by peroxidase-conjugated streptavidin. The IC50 values for testing compounds were calculated by a four-parameter logistic regression.
The compounds tested were compound samples prepared according to procedures described in the Synthetic Examples section, with the stereochemical purity as indicated in the Examples.

recombinant human integrin αVβ6, sequence (P06756 31-992): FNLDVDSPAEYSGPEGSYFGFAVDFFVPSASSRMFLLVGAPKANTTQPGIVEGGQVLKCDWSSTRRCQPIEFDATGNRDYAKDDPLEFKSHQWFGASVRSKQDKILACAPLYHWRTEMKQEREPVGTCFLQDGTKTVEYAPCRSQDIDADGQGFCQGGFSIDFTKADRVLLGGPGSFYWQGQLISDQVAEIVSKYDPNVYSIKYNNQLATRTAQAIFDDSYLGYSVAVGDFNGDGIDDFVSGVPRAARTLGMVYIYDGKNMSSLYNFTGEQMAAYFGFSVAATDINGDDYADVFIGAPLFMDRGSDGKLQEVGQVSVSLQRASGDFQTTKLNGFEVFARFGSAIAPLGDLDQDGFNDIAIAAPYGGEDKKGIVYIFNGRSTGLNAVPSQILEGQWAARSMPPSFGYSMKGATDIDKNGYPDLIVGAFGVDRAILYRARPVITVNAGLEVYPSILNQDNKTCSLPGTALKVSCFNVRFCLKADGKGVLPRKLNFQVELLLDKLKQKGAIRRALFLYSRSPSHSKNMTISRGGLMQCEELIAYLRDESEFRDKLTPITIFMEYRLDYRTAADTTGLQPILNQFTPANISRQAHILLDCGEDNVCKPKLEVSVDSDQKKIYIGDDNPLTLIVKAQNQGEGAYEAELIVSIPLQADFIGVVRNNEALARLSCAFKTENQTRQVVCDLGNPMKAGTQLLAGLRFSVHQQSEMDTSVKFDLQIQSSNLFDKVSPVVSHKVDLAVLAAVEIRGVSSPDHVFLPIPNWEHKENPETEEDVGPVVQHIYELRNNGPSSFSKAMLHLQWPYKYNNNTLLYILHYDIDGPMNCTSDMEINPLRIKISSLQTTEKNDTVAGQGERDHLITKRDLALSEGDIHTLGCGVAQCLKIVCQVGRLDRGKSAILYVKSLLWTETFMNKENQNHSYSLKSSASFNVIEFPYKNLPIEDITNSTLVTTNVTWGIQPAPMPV
recombinant human integrin αVβ6, sequence (P18564 22-707): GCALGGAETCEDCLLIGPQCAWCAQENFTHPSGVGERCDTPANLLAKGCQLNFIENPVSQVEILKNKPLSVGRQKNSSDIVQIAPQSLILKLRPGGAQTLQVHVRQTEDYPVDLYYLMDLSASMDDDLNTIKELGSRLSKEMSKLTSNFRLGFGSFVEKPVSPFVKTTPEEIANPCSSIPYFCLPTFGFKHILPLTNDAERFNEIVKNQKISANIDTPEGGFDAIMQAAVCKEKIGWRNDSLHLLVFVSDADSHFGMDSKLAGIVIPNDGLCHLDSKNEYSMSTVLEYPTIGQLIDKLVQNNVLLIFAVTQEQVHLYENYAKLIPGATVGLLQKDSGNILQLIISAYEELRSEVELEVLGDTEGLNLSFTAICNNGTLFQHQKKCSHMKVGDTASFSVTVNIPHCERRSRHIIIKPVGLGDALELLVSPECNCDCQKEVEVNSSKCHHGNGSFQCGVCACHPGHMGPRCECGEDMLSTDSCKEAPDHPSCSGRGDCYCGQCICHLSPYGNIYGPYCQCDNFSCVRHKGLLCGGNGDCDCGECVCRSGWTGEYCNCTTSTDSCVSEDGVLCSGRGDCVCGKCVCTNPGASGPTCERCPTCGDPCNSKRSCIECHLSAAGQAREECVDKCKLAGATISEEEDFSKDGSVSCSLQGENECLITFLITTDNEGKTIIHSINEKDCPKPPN

Question: Which IC50 does the source give for `CS(=O)(=O)N1CCC[C@@H](C(=O)N[C@@H](CCCCCCCc2ccc3c(n2)NCCC3)C(=O)O)C1` (mixture of isomers) [Compound 37, (S)-2-((R)-1-(methylsulfonyl)piperidine-3-carboxamido)-9-(5,6,7,8-tetrahydro-1,8-naphthyridin-2-yl)nonanoic acid and (S)-2-((S)-1-(methylsulfonyl)piperidine-3-carboxamido)-9-(5,6,7,8-tetrahydro-1,8-naphthyridin-2-yl)nonanoic Acid] here?
Answer: < 50 nM

Question: With `O=C(O)[C@H](CCCCCCCc1ccc2c(n1)NCCC2)NC(=O)[C@H]1CCOc2ccccc21` (mixture of isomers) [Compound 46, (S)-2-((S)-chromane-4-carboxamido)-9-(5,6,7,8-tetrahydro-1,8-naphthyridin-2-yl)nonanoic Acid and (S)-2-((R)-chromane-4-carboxamido)-9-(5,6,7,8-tetrahydro-1,8-naphthyridin-2-yl)nonanoic Acid] as the molecule, how does the IC50 read?
Answer: 50 to 250 nM

Question: With `C[C@@]1(C(=O)N[C@@H](CCCCCCCc2ccc3c(n2)NCCC3)C(=O)O)CCCOC1` (mixture of isomers) [Compound 47, (S)-2-((R)-3-methyltetrahydro-2H-pyran-3-carboxamido)-9-(5,6,7,8-tetrahydro-1,8-naphthyridin-2-yl)nonanoic Acid and (S)-2-((S)-3-methyltetrahydro-2H-pyran-3-carboxamido)-9-(5,6,7,8-tetrahydro-1,8-naphthyridin-2-yl)nonanoic Acid] as the molecule, how does the IC50 read?
Answer: 50 to 250 nM

Question: With `CC1(C(=O)N[C@@H](CCCCCCCc2ccc3c(n2)NCCC3)C(=O)O)CCOCC1` [Compound 8, (S)-2-(4-methyltetrahydro-2H-pyran-4-carboxamido)-9-(5,6,7,8-tetrahydro-1,8-naphthyridin-2-yl)nonanoic Acid] as the molecule, how does the IC50 read?
Answer: < 50 nM

Question: How did the IC50 turn out when `CS(=O)(=O)CCCC(=O)N[C@@H](CCCCCCCc1ccc2c(n1)NCCC2)C(=O)O` [Compound 24, (S)-2-(4-(methylsulfonyl)butanamido)-9-(5,6,7,8-tetrahydro-1,8-naphthyridin-2-yl)nonanoic Acid] was run?
Answer: 251 to 1000 nM

Question: `COCCCC(=O)N[C@@H](CCCCCCCc1ccc2c(n1)NCCC2)C(=O)O` [Compound 30, (S)-2-(4-methoxybutanamido)-9-(5,6,7,8-tetrahydro-1,8-naphthyridin-2-yl)nonanoic Acid] was tested. Which IC50 did it give?
Answer: 251 to 1000 nM

Question: With `CC(C)(C)OC(=O)N1CC(C)(OC(=O)N[C@@H](CCCCCCCc2ccc3c(n2)NCCC3)C(=O)O)C1` [Compound 32, (S)-2-((((1-(tert-butoxycarbonyl)-3-methylazetidin-3-yl)oxy)carbonyl)amino)-9-(5,6,7,8-tetrahydro-1,8-naphthyridin-2-yl)nonanoic Acid] as the molecule, how does the IC50 read?
Answer: < 50 nM

Question: With `O=C(N[C@@H](CCCCCCCc1ccc2c(n1)NCCC2)C(=O)O)C1CCNCC1` [Compound 34, (S)-2-(piperidine-4-carboxamido)-9-(5,6,7,8-tetrahydro-1,8-naphthyridin-2-yl)nonanoic Acid] as the molecule, how does the IC50 read?
Answer: 50 to 250 nM

Question: For `CC(=O)N1CCC(C(=O)N[C@@H](CCCCCCCc2ccc3c(n2)NCCC3)C(=O)O)CC1` [Compound 36, (S)-2-(1-acetylpiperidine-4-carboxamido)-9-(5,6,7,8-tetrahydro-1,8-naphthyridin-2-yl)nonanoic Acid], which IC50 is on record?
Answer: 50 to 250 nM

Question: `NS(=O)(=O)CCC(=O)N[C@@H](CCCCCCCc1ccc2c(n1)NCCC2)C(=O)O` [Compound 38, (S)-2-(3-sulfamoylpropanamido)-9-(5,6,7,8-tetrahydro-1,8-naphthyridin-2-yl)nonanoic Acid] was tested. Which IC50 did it give?
Answer: 251 to 1000 nM

Question: For `CS(=O)(=O)N1CCC(C(=O)N[C@@H](CCCCCCCc2ccc3c(n2)NCCC3)C(=O)O)CC1` [Compound 39, (S)-2-(1-(methylsulfonyl)piperidine-4-carboxamido)-9-(5,6,7,8-tetrahydro-1,8-naphthyridin-2-yl)nonanoic Acid], which IC50 is on record?
Answer: < 50 nM

Question: `O=C(O)[C@H](CCCCCCCc1ccc2c(n1)NCCC2)NC(=O)C1(C(F)(F)F)CCOCC1` [Compound 42, (S)-9-(5,6,7,8-tetrahydro-1,8-naphthyridin-2-yl)-2-(4-(trifluoromethyl)tetrahydro-2H-pyran-4-carboxamido)nonanoic Acid] was tested. Which IC50 did it give?
Answer: < 50 nM

Question: How did the IC50 turn out when `O=C(N[C@@H](CCCCCCCc1ccc2c(n1)NCCC2)C(=O)O)C1CC2CCC(C1)O2` (stereo partly drawn) [Compound 43, (S)-2-((1R,3s,5S)-8-oxabicyclo[3.2.1]octane-3-carboxamido)-9-(5,6,7,8-tetrahydro-1,8-naphthyridin-2-yl)nonanoic acid and (S)-2-((1R,3r,5S)-8-oxabicyclo[3.2.1]octane-3-carboxamido)-9-(5,6,7,8-tetrahydro-1,8-naphthyridin-2-yl)nonanoic Acid] was run?
Answer: < 50 nM

Question: `CC1(C(=O)N[C@@H](CCCCCCCc2ccc3c(n2)NCCC3)C(=O)O)CCCCC1` [Compound 44, (S)-2-(1-methylcyclohexanecarboxamido)-9-(5,6,7,8-tetrahydro-1,8-naphthyridin-2-yl)nonanoic Acid] was tested. Which IC50 did it give?
Answer: < 50 nM

Question: How did the IC50 turn out when `O=C(O)[C@H](CCCCCCCc1ccc2c(n1)NCCC2)NC(=O)C12CC(C1)C2` [Compound 45, (S)-2-(bicyclo[1.1.1]pentane-1-carboxamido)-9-(5,6,7,8-tetrahydro-1,8-naphthyridin-2-yl)nonanoic Acid] was run?
Answer: < 50 nM
